We go through five molecules from paper PMC11062922 (Nature Chemical Biology, 2023).

Molecules are shown by their SMILES.

One experiment concerns the target T1, CAMK2D (Homo sapiens, UniProt Q13557).
T1 construct: endogenous in cells
The experiment is described as follows: Kinobeads competition binding: CAMK2D.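 Note: selectivity score: engagement of this protein divided by summed engagement of all targets.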 Conditions: target CAMK2D. From the text:
Supplement 41589_2023_1459_MOESM4_ESM.xlsx, sheet "CATDS matrix" | column: CAMK2D

For another experiment, the target named is T2, EPHB6 (Homo sapiens, UniProt O15197).
T2 construct: to maximize the representation of endogenous proteins; endogenous in cells
T2 sequence (O15197 32-1021): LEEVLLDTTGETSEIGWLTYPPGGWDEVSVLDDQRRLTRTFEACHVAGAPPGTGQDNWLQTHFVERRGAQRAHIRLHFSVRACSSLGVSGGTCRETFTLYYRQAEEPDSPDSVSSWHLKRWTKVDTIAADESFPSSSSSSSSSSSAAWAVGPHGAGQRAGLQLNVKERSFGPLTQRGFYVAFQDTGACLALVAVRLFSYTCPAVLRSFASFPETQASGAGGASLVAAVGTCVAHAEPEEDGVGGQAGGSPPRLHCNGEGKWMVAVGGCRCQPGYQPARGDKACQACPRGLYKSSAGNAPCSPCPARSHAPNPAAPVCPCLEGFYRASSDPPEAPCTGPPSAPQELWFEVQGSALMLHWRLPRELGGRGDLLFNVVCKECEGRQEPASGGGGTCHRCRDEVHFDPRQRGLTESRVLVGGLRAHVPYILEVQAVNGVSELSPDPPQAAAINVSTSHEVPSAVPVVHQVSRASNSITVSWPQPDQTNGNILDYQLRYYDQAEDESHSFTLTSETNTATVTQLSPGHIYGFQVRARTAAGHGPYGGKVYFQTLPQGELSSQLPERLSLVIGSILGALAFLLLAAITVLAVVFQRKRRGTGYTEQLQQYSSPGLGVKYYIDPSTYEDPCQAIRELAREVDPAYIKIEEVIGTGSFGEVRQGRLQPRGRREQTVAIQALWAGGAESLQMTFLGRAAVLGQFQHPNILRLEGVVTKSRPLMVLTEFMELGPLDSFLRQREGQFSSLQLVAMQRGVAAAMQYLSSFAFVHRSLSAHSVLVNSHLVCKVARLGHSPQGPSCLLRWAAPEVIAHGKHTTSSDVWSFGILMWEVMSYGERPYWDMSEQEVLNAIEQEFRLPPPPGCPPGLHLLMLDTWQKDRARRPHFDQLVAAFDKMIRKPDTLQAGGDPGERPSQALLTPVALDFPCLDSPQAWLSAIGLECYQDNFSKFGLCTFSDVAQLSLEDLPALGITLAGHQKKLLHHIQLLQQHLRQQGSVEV
The experiment is described as follows: Kinobeads two-dose competition binding: EPHB6. As to conditions: target EPHB6. From the text:
Briefly, Kinobeads comprise seven broad-spectrum small molecule kinase inhibitors immobilized on Sepharose beads. […]. Compounds of interest are set to compete for target protein binding with Kinobeads in the lysate and the amount of a given protein bound to Kinobeads in the presence of a compound can be quantified relative to a dimethylsulfoxide (DMSO) vehicle control by label-free mass spectrometry. This assay measures the physical interaction of a compound with thousands of endogenous proteins in parallel and, when systematically increasing the concentration of competitor, enables the calculation of an apparent interaction constant ( Kdapp ) for each compound and protein.
Kinobeads pulldown experiments were performed as described previously[13],[14],[17] with minor modification. […] The protein concentration was adjusted to 5 mg ml^−1. Kinase inhibitors were spiked into 0.5 ml of cell lysate at final concentrations of 100 and 1,000 nM (or DMSO, 0.3, 1, 3, 10, 30, 100, 300 and 1,000 nM for full dose experiments). […] Lysates were incubated for 45 min at 4 °C. Subsequently, lysates were incubated with Kinobeads ε (17.5 µl of settled beads) for 30 min at 4 °C. To assess the degree of protein depletion from the lysates by Kinobeads, the flow through of the DMSO control was recovered for a pulldown of pulldown experiment where the lysate was incubated a second time with fresh Kinobeads. Beads were washed in three steps with buffer containing 0.4%, 0.2% and no IGEPAL. Bound proteins were reduced with 50 mM DTT in 8 M Urea, 40 mM Tris-HCl pH 7.4 for 30 min at room temperature. After alkylation with 55 mM chloroacetamide, the urea concentration was reduced to 1–2 M and proteins were digested with trypsin. Acidified peptides were desalted and concentrated using SepPak tC18 µEluation plates (Waters). Samples were frozen, dried by vacuum centrifugation and stored at −20 °C.
Each kinase inhibitor was processed together with all DMSO controls of the same plate. Additionally, each search was supplemented with five high quality DMSO controls for consistent peptide identification and protein grouping. The resultant file (proteinGroups.txt) was used for subsequent filtering, normalization, data visualization and target annotation that was automatically performed by a data processing pipeline built in house that used R (including the ‘drc’ and ‘heatmap’ packages). First, reverse hits, potential contaminants and not quantified proteins in the DMSO control samples were discarded. Protein raw and label-free quantification intensities were normalized to the median DMSO control intensity to obtain relative residual binding intensities for each protein group at every inhibitor concentration and standard deviations of the DMSO control intensity were calculated. IC50 values were estimated based on the following equation IC50=I×100−inhibition/inhibition where [I] is the inhibitor concentration that was used for IC50 calculation and ‘inhibition’ the relative residual binding intensity. […]. Estimated Kdapp values were then calculated by multiplying the estimated IC50 values with a protein-dependent correction factor that was limited to a maximum value of one. The correction factor accounts for the depletion of a target protein from the lysate by Kinobeads. The depletion can be measured by the ratio of the amount of protein captured in two consecutive pulldowns of the same DMSO control lysate. In this study, correction factors were determined in separate experiments using the same lysate mixture and the same bead batch. Correction factors were set to the median of all correction factors. Targets of kinase inhibitors were annotated using the previously published random forest classifier. A training data set was annotated manually. […]

Another experiment relates to MELK. Briefly: Kinobeads competition binding: MELK.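 Note: share of total target engagement due to this protein at one drug concentration.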 More on the design: species or system human. Conditions: target MELK.
A further experiment addresses T3, ERN1 (Homo sapiens, UniProt O75460).
T3 construct: endogenous in cells
The experiment is described as follows: Kinobeads competition binding: ERN1. As to conditions: target ERN1. From the text:
Supplement 41589_2023_1459_MOESM4_ESM.xlsx, sheet "CATDS matrix" | column: ERN1

T3 sequence (O75460 19-977): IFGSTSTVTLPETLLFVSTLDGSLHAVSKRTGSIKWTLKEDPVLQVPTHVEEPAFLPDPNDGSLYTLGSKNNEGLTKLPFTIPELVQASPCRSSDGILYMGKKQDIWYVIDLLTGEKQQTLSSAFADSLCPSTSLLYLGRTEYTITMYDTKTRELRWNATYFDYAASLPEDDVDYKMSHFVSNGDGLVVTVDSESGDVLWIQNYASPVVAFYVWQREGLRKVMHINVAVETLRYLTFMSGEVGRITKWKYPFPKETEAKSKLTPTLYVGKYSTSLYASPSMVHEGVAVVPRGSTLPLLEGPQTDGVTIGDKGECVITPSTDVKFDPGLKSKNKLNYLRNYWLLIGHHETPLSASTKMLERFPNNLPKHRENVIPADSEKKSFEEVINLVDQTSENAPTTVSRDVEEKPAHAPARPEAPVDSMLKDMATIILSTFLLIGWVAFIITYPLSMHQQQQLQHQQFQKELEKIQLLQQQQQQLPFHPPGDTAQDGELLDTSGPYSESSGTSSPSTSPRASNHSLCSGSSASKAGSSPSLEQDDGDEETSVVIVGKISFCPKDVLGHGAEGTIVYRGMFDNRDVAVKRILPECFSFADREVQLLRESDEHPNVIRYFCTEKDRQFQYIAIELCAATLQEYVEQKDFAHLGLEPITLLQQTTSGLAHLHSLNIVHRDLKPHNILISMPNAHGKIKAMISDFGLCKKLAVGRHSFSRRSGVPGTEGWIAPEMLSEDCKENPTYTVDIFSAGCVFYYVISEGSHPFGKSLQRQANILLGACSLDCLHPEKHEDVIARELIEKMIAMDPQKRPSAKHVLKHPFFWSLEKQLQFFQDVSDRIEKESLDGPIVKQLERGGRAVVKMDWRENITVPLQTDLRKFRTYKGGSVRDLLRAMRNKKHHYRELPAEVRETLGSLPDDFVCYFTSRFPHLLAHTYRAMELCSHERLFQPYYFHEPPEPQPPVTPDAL
T1 sequence (Q13557 whole entry): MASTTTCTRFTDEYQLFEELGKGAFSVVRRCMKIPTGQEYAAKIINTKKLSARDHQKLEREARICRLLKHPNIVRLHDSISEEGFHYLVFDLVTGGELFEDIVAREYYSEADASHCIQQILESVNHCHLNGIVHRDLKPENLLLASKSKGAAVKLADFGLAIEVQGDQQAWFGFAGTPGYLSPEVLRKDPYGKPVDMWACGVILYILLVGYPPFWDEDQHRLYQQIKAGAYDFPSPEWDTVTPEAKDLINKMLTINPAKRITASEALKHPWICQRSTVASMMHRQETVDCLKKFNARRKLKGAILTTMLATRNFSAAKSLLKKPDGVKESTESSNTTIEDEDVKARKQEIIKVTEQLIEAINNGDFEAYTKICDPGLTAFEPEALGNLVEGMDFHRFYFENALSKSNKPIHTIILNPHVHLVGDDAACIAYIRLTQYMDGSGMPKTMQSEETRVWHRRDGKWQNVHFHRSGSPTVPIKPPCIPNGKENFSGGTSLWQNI

With `CCN1CCN(Cc2ccc(Nc3ncc(F)c(-c4cc(F)c5nc(C)n(C(C)C)c5c4)n3)nc2)CC1` [Abemaciclib], the CATDS is reported as 0.08654 at CAMK2D, 0 on EPHB6, 0 with MELK and 0 at ERN1.

With `N#CC1(c2ccc(NC(=O)c3cccnc3NCc3ccncc3)cc2)CCCC1` [Apatinib], the CATDS at CAMK2D, at EPHB6, with MELK and at ERN1 was 0 each time.

On to `CN(C)C/C=C/C(=O)Nc1cc2c(Nc3ccc(F)c(Cl)c3)ncnc2cc1O[C@H]1CCOC1` [Afatinib], for which the CATDS on CAMK2D, on EPHB6 and at ERN1 was 0 each time.

For the molecule `Nc1ncnc2[nH]c(-c3ccccc3)nc12` [AH5015_KCGS], the CATDS on CAMK2D, on EPHB6, in the experiment with MELK and on ERN1 was 0 in each case.

As to `CCc1cc2c(cc1N1CCC(N3CCOCC3)CC1)C(C)(C)c1[nH]c3cc(C#N)ccc3c1C2=O` [Alectinib], the CATDS on CAMK2D, at EPHB6, in the experiment with MELK and at ERN1 was 0 in each case.
